“And” between values parts separate entries of the source, which are not always exact repeats. Equal values may be shown once.
Columns and labels:
[1] = Body weight and body composition (living NMR) of mice; assay type: in vivo, mouse; settings: for body weight of db/db ip APC, group mean: N 6; for Body weight, group mean: N=7; for Body weight: individual mice
Protocol: All animal experiments were performed according to procedures approved by the Shanghai Institutes for Biological Sciences (SIBS) Animal Care and Use Committee. The db/db mice (stock NO. 000642 C57BL/6J, JACKSON) were purchased from the Jackson laboratory. The 8–10-week-old wild-type C57BL/6 and ICR/JCL mice were purchased from the Shanghai Laboratory Animal Center. Mice were housed in the animal facility at SIBS, in which mice were maintained on a 12-h light/12-h dark cycle for at least 2 weeks before the study and had free access to water and a regular diet (12% fat). For high-fat-induced obesity mice (DIO), high-fat diet (60% fat, Research Diets) was fed to wild-type mice for at least 13–15 weeks and glucose-tolerance tests were performed to confirm the development of diabetes in these mice. After being euthanized, samples were collected. Unless specified, male mice were used for these experiments.
Under the condition of non-anesthesia and non-invasion, the composition of fat and lean in live mice was analyzed by nuclear magnetic resonance (NMR, The Minispec, Bruker) according to the operational manual.

LXRα = assay: Immunoblot of LXRα in insulin-stimulated primary hepatocytes; assay type: cell-based, mouse; settings: for relative LXRa protein: individual replicates, Supp. Fig.6 b; for relative LXRa protein, mean: N=3
Protocol: 3 Supplementary Figure 6. APC inhibited transcription induced by half-CRE in the promoters of
5 a) Immunoblot of LXRa protein levels in primary hepatocytes stimulated with insulin (100 nM) for
6 indicated times (0–18 h). One presentative result from three experiments is shown here. Relative
7 LXRa protein level normalized to GAPDH shown as a bar graph (b). Data are represented as
8 mean ± SEM (n=3 per treatment). *, p < 0.05; **, p < 0.01; p values were determined by two-way […]
(1 picture or pasted object on this page, not shown here)

[2] = db/db mice, mean, sample size 7

CC(C)=CCc1cc(C=CC(=O)O)cc(CC=C(C)C)c1O [APC, 3,5-diprenyl-4-hydroxycinnamic acid]
fat of db/db mice ([1]; db/db mice, individual animals): 13.23 g and 18.64 g and 16.51 g and 20.35 g and 17.58 g and 17.71 g and 15.53 g
fat/lean ratio of db/db mice ([1]; db/db mice, individual animals): 1.371 and 1.124 (2×) and 1.477 and 1.196 and 1.113 and 1.231
body weight of db/db ip APC ([1]; db/db mice, 0W, individual animals): 45.4 g and 45.3 g and 44.6 g and 40 g and 47.8 g and 44 g
body weight of db/db ip APC ([1]; db/db mice, 1W, individual animals): 48.6 g and 47.9 g and 47.4 g and 42.5 g and 49.5 g and 45.9 g
body weight of db/db ip APC, group mean ([1]; db/db mice, 1W, mean): 46.97 g
body weight of db/db ip APC ([1]; db/db mice, 2W, individual animals): 48.4 g and 47.9 g and 47.3 g and 41.7 g and 48.9 g and 45.9 g
body weight of db/db ip APC ([1]; db/db mice, 4W, individual animals): 47.9 g and 46.5 g and 48.1 g and 42.5 g and 45.8 g and 47.8 g
body weight of db/db ip APC, group mean ([1]; db/db mice, 4W, mean): 46.43 g
body weight of db/db ip APC ([1]; db/db mice, 5W, individual animals): 47.9 g and 45.3 g and 47.8 g and 44.9 g and 46.8 g and 48.5 g
body weight of db/db ip APC, group mean ([1]; db/db mice, 5W, mean): 46.87 g
fat of db/db mice, group mean [1, 2]: 17.08 g
fat/lean ratio of db/db mice, group mean [1, 2]: 1.234
Body weight, group mean ([1]; lean WT mice ip APC, 8w, in g (unit assumed)): 20.96
Body weight ([1]; lean WT mice ip APC, 8w): 21.4 g and 21.2 g and 20.1 g and 20.5 g and 21.7 g and 20.9 g (2×) and 21.6 g
Body weight, column mean over all weeks ([1]; lean WT mice ip APC, 8w-15w, in g (unit assumed)): 22.98
Body weight, group mean ([1]; lean WT mice ip APC, 10w, in g (unit assumed)): 22.01
Body weight ([1]; lean WT mice ip APC, 10w): 23.62 g and 20.96 g and 22.95 g and 20.89 g and 22.05 g and 22.38 g and 21.2 g and 21.22 g
Body weight, group mean ([1]; lean WT mice ip APC, 12w, in g (unit assumed)): 23.14
Body weight ([1]; lean WT mice ip APC, 12w): 25.7 g and 21.4 g and 23.7 g and 23 g and 24.2 g and 22.5 g and 23.3 g and 21.5 g
Body weight, group mean ([1]; lean WT mice ip APC, 13w, in g (unit assumed)): 24.08
Body weight ([1]; lean WT mice ip APC, 13w): 25.85 g and 22.7 g and 24.7 g and 23.6 g and 24.5 g and 24.21 g and 23.8 g and 23 g
Body weight, group mean ([1]; lean WT mice ip APC, 15w, in g (unit assumed)): 24.72
Body weight ([1]; lean WT mice ip APC, 15w): 27.03 g and 22.8 g and 25.2 g and 23.7 g and 26 g and 24.5 g and 23.5 g and 23.8 g
RER, body weight and plasma NEFA levels of lean mice ([1]; lean wild C57 mice, i.p. 20 mg/kg, 3 weeks): little effect
relative LXRa protein (LXRα; Insulin 0h): 101.09 and 100.00 and 97.00
relative LXRa protein, mean (LXRα; Insulin 0h): 99.36
relative LXRa protein (LXRα; Insulin 3h): 65.50 and 69.00 and 75.00
relative LXRa protein, mean (LXRα; Insulin 3h): 69.83
relative LXRa protein, Mean Diff. 3h vs. 0h (LXRα; Insulin 3h minus 0h, within APC group): -29.53
relative LXRa protein (LXRα; Insulin 18h): 33.42 and 31.00 and 29.00
relative LXRa protein, mean (LXRα; Insulin 18h): 31.14
relative LXRa protein, Mean Diff. 18h vs. 0h (LXRα; Insulin 18h minus 0h, within APC group): -68.22
LXRα protein levels (LXRα; primary hepatocytes, insulin treatment 18-h): significantly reduced

— paper PMC8752738, “A propolis-derived small molecule ameliorates metabolic syndrome in obese mice by targeting the CREB/CRTC2 transcriptional complex” (Nature Communications, 2022)
